The target of one assay is T1, HIF-2α (Homo sapiens, UniProt Q99814).
T1 construct: host or cells: 786-O cells stably transduced with Cignal Lenti HIF Luc Reporter (only the reporter was introduced, not HIF-2α)
Put plainly: HIF-2α luciferase reporter assay in HIF-Luc-786-O cells. The class given is cell-based. The conditions noted are these: Table 2, 20 hours incubation. In short, it runs like this:
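786-O cells stably carrying a HIF-responsive luciferase reporter, 20,000/well in OptiMem with 1% DMSO, exposed to compound up to 50 uM for 20 h at 37 °C. ONE-Glo luminescence normalised to DMSO and no-cell controls; IC50 by four-parameter fit.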
(In general: A reporter such as luciferase makes a cellular process visible.)

The target of assay [1] is T2, Histidine tagged HIF-2α protein containing PAS-B domain (240-350) (Homo sapiens, UniProt Q99814).
T2 construct: HIF-2α protein containing PAS-B domain (240-350); made in house
T2 sequence (Q99814 240-350): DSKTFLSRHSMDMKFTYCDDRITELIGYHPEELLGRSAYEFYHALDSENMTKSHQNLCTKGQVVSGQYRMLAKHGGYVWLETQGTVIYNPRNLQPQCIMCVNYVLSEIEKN
Kind of assay: HIF-2α Scintillation Proximity Assay (SPA) binding assay. The conditions noted are these: Table 2; 50 nM HIF-2α protein, 25 nM 3H-tracer. In short, it runs like this: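 His-tagged HIF-2α PAS-B (240-350), 50 nM final, preincubated with compound 1 h at room temperature in 25 mM Tris-HCl pH 7.4, 150 mM NaCl, 0.15% BSA, 0.001% Tween 20, 2% DMSO. Copper-chelate SPA beads (3 ug/well, 45 min) and 25 nM tritiated N-(3-chlorophenyl)-4-nitro-2,1,3-benzoxadiazol-5-amine tracer followed; IC50 from four-parameter fits.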
A general note: Scintillation proximity formats need no separation of bound from free tracer.

pIC50: −log10 of the molar value.

IC50 data for 1 compound are collected here from patent US11787762B2, “Tetralin and tetrahydroquinoline compounds as inhibitors of HIF-2alpha” (ARCUS BIOSCIENCES, INC., priority 2020, dated 2023).

T1 sequence (Q99814 whole entry): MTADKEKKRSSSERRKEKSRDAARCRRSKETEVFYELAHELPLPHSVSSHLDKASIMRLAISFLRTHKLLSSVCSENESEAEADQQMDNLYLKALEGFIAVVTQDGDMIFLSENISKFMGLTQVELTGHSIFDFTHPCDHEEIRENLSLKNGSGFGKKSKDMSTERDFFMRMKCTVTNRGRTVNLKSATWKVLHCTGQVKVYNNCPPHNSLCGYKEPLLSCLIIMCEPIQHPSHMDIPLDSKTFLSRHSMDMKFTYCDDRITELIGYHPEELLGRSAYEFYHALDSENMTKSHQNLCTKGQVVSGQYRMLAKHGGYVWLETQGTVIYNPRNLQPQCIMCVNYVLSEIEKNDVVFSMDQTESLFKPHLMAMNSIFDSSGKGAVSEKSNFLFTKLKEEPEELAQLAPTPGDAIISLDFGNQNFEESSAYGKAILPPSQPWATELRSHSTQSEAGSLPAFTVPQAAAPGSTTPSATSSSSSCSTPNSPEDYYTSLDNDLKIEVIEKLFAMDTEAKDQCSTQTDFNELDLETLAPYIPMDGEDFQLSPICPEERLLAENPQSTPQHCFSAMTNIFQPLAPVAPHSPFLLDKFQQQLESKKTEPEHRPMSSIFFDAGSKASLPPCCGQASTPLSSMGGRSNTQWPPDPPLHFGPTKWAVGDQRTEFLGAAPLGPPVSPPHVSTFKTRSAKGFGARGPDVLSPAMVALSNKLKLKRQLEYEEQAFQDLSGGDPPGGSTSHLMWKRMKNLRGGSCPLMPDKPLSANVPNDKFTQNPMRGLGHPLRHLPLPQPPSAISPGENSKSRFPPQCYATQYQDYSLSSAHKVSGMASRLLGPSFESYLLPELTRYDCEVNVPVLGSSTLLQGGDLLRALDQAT

For the compound `CS(=O)(=O)c1ccc([C@H]2CC[C@H](F)c3cc(F)cc(C#N)c32)c2c1[C@H](O)[C@H](F)C2` [Example 134, (5S,8R)-3,5-Difluoro-8-[(1S,2R)-2-fluoro-1-hydroxy-7-methylsulfonyl-2,3-dihydro-1H-inden-4-yl]-5,6,7,8-tetrahydronaphthalene-1-carbonitrile], the pIC50 (at HIF-2α; in assay [1]) was more than 7.00 in each case.

Broadly, the pIC50 is the negative decadic logarithm of the IC50, by convention in mol/L. Low readings indicate a large IC50, high ones a small IC50.
